Source: patent publication US10570457B2, “Methods for predicting drug responsiveness” (Medical Prognosis Institute A/S, priority 2014, dated 2020)

Legend:
[1] = tested on: colorectal cancer patients; assay: Survival of colon cancer patients treated with 5-FU, grouped by NT5E-predicted sensitivity; assay type: in vivo, human; details: adjuvant chemotherapy with 5-FU; NT5E expression below vs above population median; 232 colorectal cancer biopsies; p=0.006
Protocol: A clinical dataset of 232 pre-treatment fresh frozen colorectal cancer surgical biopsies was downloaded from Gene Expression Omnibus under accession number GSE17538. The biopsies were analyzed using the Affymetrix HG-U133-Plus_2 array type. The expression of NT5E was determined by reading the intensity of Affymetrix probeset 203939_at, which is predicted to be more highly expressed in 5-FU-resistant patients. Patients were predicted sensitive to 5-FU if the expression of NT5E was below the population median. Patients were predicted resistant if expression of NT5E was above the population median.

colorectal cancer = details: cited from earlier work
topoisomerase I = target: T1, topoisomerase I (Homo sapiens, UniProt P11387); details: metabolite of irinotecan; cited from earlier work
T1 sequence (P11387 1-765): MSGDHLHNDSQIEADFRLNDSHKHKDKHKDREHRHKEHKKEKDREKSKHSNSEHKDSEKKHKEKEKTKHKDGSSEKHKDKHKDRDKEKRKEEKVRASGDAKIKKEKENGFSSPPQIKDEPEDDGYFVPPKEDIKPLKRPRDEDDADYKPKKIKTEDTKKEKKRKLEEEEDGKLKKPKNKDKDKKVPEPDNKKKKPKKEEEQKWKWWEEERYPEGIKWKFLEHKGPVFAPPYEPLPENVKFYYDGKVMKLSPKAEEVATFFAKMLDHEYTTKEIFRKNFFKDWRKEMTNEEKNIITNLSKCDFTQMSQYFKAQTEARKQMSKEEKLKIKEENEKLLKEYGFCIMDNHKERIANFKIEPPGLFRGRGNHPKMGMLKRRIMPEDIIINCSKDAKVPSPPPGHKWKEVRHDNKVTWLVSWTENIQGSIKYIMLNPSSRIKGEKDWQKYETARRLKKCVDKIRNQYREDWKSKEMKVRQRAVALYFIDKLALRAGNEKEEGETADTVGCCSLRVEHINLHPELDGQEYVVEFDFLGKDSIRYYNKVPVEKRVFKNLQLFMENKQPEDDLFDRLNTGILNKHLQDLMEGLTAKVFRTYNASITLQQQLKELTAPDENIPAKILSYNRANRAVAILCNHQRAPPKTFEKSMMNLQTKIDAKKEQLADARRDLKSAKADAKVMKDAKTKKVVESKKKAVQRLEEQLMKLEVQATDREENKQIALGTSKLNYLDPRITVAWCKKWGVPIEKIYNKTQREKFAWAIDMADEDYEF

| SMILES | Survival of predicted-sensitive group versus predicted-resistant group [1] | Survival effect of 5-FU treatment (colorectal cancer; adjuvant setting of colorectal cancer) | Response rate, 5-FU monotherapy (colorectal cancer; metastatic colorectal cancer) | Potency as a topoisomerase inhibitor relative to irinotecan (topoisomerase I) |
| --- | --- | --- | --- | --- |
| O=c1[nH]cc(F)c(=O)[nH]1 [5-Fluorouracil (5-FU), 5-fluorouracil] | significantly higher rate of survival | survival benefit | 10-15% | – |
| CCc1c2c(nc3ccc(O)cc13)-c1cc3c(c(=O)n1C2)COC(=O)[C@]3(O)CC [SN-38] | – | – | – | significantly greater potency |
